How the values were obtained:
[1] = (§1) The drug is tested on Z-030 corresponding to mouse gut metagenome with ENA study accession number: PRJEB37062 and ENA sample accession number: ERS12561829 for biotransformation under anaerobic condition. The drug concentrations were measured over 9 timepoints collected between 0 and 24 hours of incubation by liquid-chromatography-coupled mass spectrometry (LC–MS); conditions: 2 µM
[2] = as §1, with “Z-029” for “Z-030”, “rat” for “mouse”, “ERS12561828” for “ERS12561829”; conditions: 2 µM
[3] = as §1, with “Z-024” for “Z-030”, “pig” for “mouse”, “ERS12561823” for “ERS12561829”; conditions: 2 µM
[4] = as §1, with “Z-012” for “Z-030”, “to” for “to mouse gut”, “ERS12561812” for “ERS12561829”; conditions: 2 µM
[5] = as §1, with “Z-007” for “Z-030”, “rat” for “mouse”, “ERS12561807” for “ERS12561829”; conditions: 2 µM
[6] = as §1, with “Z-005” for “Z-030”, “to” for “to mouse gut”, “ERS12561805” for “ERS12561829”; conditions: 2 µM
[7] = as §1, with “Z-001” for “Z-030”, “ERS12561801” for “ERS12561829”; conditions: 2 µM
[8] = as §1, with “WLS-090” for “Z-030”, “human” for “mouse”, “ERS12561753” for “ERS12561829”; conditions: 2 µM
[9] = as §1, with “WLS-082” for “Z-030”, “human” for “mouse”, “ERS12561751” for “ERS12561829”; conditions: 2 µM
[10] = as §1, with “WLS-077” for “Z-030”, “human” for “mouse”, “ERS12561750” for “ERS12561829”; conditions: 2 µM
[11] = human gut metagenome, 24 h, 2 µM
[12] = human gut metagenome, 24 h, 2 µM; remark: listed apart in the source
[13] = human gut metagenome, 24 h, 2 µM; remark: listed apart in the source
[14] = human gut metagenome, 24 h, 2 µM; remark: listed apart in the source
[15] = human gut metagenome, 24 h, 2 µM; remark: listed apart in the source
[16] = human gut metagenome, 24 h, 2 µM; remark: listed apart in the source
[17] = human gut metagenome, 24 h, 2 µM; remark: listed apart in the source
[18] = human gut metagenome, 24 h, 2 µM; remark: listed apart in the source
[19] = human gut metagenome, 24 h, 2 µM; remark: listed apart in the source
[20] = human gut metagenome, 24 h, 2 µM; remark: listed apart in the source
Further: call rule not given here.

| Compound | Bacterial Biotransformation [1] | Bacterial Biotransformation [2] | Bacterial Biotransformation [3] | Bacterial Biotransformation [4] | Bacterial Biotransformation [5] | Bacterial Biotransformation [6] | Bacterial Biotransformation [7] | Bacterial Biotransformation [8] | Bacterial Biotransformation [9] | Bacterial Biotransformation [10] | Bacterial Biotransformation [11] | Bacterial Biotransformation [12] | Bacterial Biotransformation [13] | Bacterial Biotransformation [14] | Bacterial Biotransformation [15] | Bacterial Biotransformation [16] | Bacterial Biotransformation [17] | Bacterial Biotransformation [18] | Bacterial Biotransformation [19] | Bacterial Biotransformation [20] |
| --- | --- | --- | --- | --- | --- | --- | --- | --- | --- | --- | --- | --- | --- | --- | --- | --- | --- | --- | --- | --- |
| Nc1nc2ccc(OC(F)(F)F)cc2s1 [RILUZOLE] | Compound NOT metabolized | Compound metabolized | Compound metabolized | Compound metabolized | Compound NOT metabolized | Compound metabolized | Compound metabolized | Compound metabolized | Compound metabolized | Compound metabolized | Compound metabolized | Compound metabolized | Compound metabolized | Compound metabolized | Compound metabolized | Compound NOT metabolized | Compound metabolized | Compound NOT metabolized | Compound metabolized | Compound metabolized |
| CCCc1nc2c(C)cc(-c3nc4ccccc4n3C)cc2n1Cc1ccc(-c2ccccc2C(=O)O)cc1 | Compound NOT metabolized | Compound NOT metabolized | Compound metabolized | Compound metabolized | Compound metabolized | Compound metabolized | Compound metabolized | Compound metabolized | Compound metabolized | Compound metabolized | Compound metabolized | Compound metabolized | Compound metabolized | Compound metabolized | Compound metabolized | Compound metabolized | Compound metabolized | Compound metabolized | Compound NOT metabolized | Compound metabolized |
| CC(C)NCC(O)c1ccc(NS(C)(=O)=O)cc1 (stereo not given) [SOTALOL] | Compound NOT metabolized | Compound NOT metabolized | Compound NOT metabolized | Compound NOT metabolized | Compound NOT metabolized | Compound NOT metabolized | Compound NOT metabolized | Compound metabolized | Compound NOT metabolized | Compound NOT metabolized | Compound NOT metabolized | Compound NOT metabolized | Compound NOT metabolized | Compound NOT metabolized | Compound NOT metabolized | Compound NOT metabolized | Compound NOT metabolized | Compound NOT metabolized | Compound NOT metabolized | Compound NOT metabolized |
| Cc1ccccc1N1C(=O)c2cc(S(N)(=O)=O)c(Cl)cc2NC1C (stereo not given) [METOLAZONE] | Compound NOT metabolized | Compound NOT metabolized | Compound NOT metabolized | Compound NOT metabolized | Compound NOT metabolized | Compound NOT metabolized | Compound NOT metabolized | Compound metabolized | Compound NOT metabolized | Compound NOT metabolized | Compound NOT metabolized | Compound NOT metabolized | Compound NOT metabolized | Compound NOT metabolized | Compound NOT metabolized | Compound metabolized | Compound NOT metabolized | Compound NOT metabolized | Compound NOT metabolized | Compound metabolized |
| NC(=O)N1c2ccccc2CC(=O)c2ccccc21 [OXCARBAZEPINE] | Compound NOT metabolized | Compound NOT metabolized | Compound metabolized | Compound NOT metabolized | Compound NOT metabolized | Compound metabolized | Compound NOT metabolized | Compound NOT metabolized | Compound NOT metabolized | Compound NOT metabolized | Compound NOT metabolized | Compound NOT metabolized | Compound NOT metabolized | Compound NOT metabolized | Compound NOT metabolized | Compound NOT metabolized | Compound NOT metabolized | Compound NOT metabolized | Compound NOT metabolized | Compound NOT metabolized |
| COc1c(C)c2c(c(O)c1C/C=C(\C)CCC(=O)OCCN1CCOCC1)C(=O)OC2 [MYCOPHENOLATE MOFETIL] | Compound NOT metabolized | Compound metabolized | Compound metabolized | Compound metabolized | Compound metabolized | Compound metabolized | Compound metabolized | Compound metabolized | Compound metabolized | Compound metabolized | Compound metabolized | Compound metabolized | Compound metabolized | Compound metabolized | Compound metabolized | Compound NOT metabolized | Compound metabolized | Compound metabolized | Compound metabolized | Compound metabolized |
| CC(C)c1nc(CN(C)C(=O)N[C@H](C(=O)N[C@@H](Cc2ccccc2)C[C@H](O)[C@H](Cc2ccccc2)NC(=O)OCc2cncs2)C(C)C)cs1 [RITONAVIR] | Compound NOT metabolized | Compound NOT metabolized | Compound NOT metabolized | Compound metabolized | Compound NOT metabolized | Compound metabolized | Compound NOT metabolized | Compound metabolized | Compound metabolized | Compound metabolized | Compound metabolized | Compound metabolized | Compound metabolized | Compound metabolized | Compound metabolized | Compound NOT metabolized | Compound metabolized | Compound NOT metabolized | Compound metabolized | Compound metabolized |
| CCc1nn(CCCN2CCN(c3cccc(Cl)c3)CC2)c(=O)n1CCOc1ccccc1 [NEFAZODONE] | Compound NOT metabolized | Compound NOT metabolized | Compound NOT metabolized | Compound NOT metabolized | Compound NOT metabolized | Compound NOT metabolized | Compound NOT metabolized | Compound metabolized | Compound metabolized | Compound NOT metabolized | Compound NOT metabolized | Compound metabolized | Compound metabolized | Compound metabolized | Compound NOT metabolized | Compound metabolized | Compound metabolized | Compound metabolized | Compound metabolized | Compound metabolized |

Source: ChEMBL document CHEMBL5724914, “Linking interpersonal differences in gut microbiota composition and drug biotransformation activity” (2024)
